Data published in patent US7365191B2, “Type of oligosaccharides and their sulfate derivatives” (Shanghaimed Co., Ltd, priority 2001, dated 2008).

Tests used:
[1] = test system: spleen B lymphocytes; experiment: Immune enhancing activity: 3H-thymidine incorporation of spleen B lymphocytes from treated C57 mice, stimulated with Bal/bc lymphocytes; format: in vivo; conditions: 0.1 mL/d × 8d
Description: a. Medicine and reagents: synthetic lentinan hexaose 18, synthetic lentinan methyl α-heptaoside 24, synthetic lentinan octyl hexaoside 18′, lentinan (brand: Tian Di Xin) is produced by Nanjing Zhenzhong Biotech Ltd.
b. Animals: C57 mice were provided by Animal Center, Academia Sinica, weighing 20±2 g.
c. grouping and administration: the 50 mice were randomly allocated to 10 groups according to weight
The mice were injected IP with different doses of lentinan oligosaccharides listed above. […] Then the spleen B lymphocytes were extracted. The following experiment was then performed with the extracted lymphocytes: the 10^6 B cells were transferred to 96-well “U” shaped bottom plate, then the lymphocytes of Bal/bc mice were used as antigens to stimulate the B cells. After 4 days, ^3H-Thymidine was intermingled with the system and the B cells were collected 18 hours after. The isotopic incorporation was assessed by scintillation counting. Compared with positive control and minus control, the immuno-enhanced effect of these oligosaccharides was evaluated.

[2] = test system: U14 tumor cells; experiment: Inhibition of U14 tumor implanted in mice; conditions: for inhibition (%) / quotient of noumenal tumor (%): U14 implanted mice; for quotient of noumenal tumor (%): ±SD
Description: Thus, the inhibition of tumor cells by the said oligosaccharides was tested using implanted tumor cells in mice. • (1) Tests of the said Oligosaccharides and their Sulfates on Mice in which Tumor Cells were Implanted. A. Materials and Methods
Cell line for the tests: U14 cell line was procured from The Tumor Research Group, The Institute of Chinese Herbal Medicine, Chinese Academy of Traditional Chinese Medicine;
Animals for the tests: 70 Kunming male mice (weight 20±2 g, grade II) were obtained from the Experimental Animal Center, the Chinese Academy of Medicine.
Medicine for control test: Cyclophosphamide was obtained from Shanghai Hualian Pharmaceutical Ltd, permit number 012034, 1995, Shanghai.
Mice grouping and administration: • a. U14 cell line group: physical saline, IP, 0.2 mL/d×10 d • b. Group treated with hexasaccharide 18: IP 10 mg/kg×10 d, 0.2 mL/d • c. Group treated with octyl hexaoside 18′: IP 10 mg/kg×10 d, 0.2 mL/d • d. Group treated with heptasaccharide 24: IP 10 mg/kg×10 d, 0.2 mL/d • e. Group treated with sulfated hexaose 25: IP 10 mg/kg×10 d, 0.2 mL/d • f. Group treated with cyclophosphamide: IP, 70 mg/kg×10 d, 0.1 mL/d (Cyclophosphamide was given to the mice by intraperitoneal at 24 h after the planting. After 48 h of the 1st injection, the 2nd injection was given, and after 48 h of the 2nd injection, the last injection was given). Test: U14 cells obtained from U14 mouse were diluted and counted. Each mouse was implanted with 0.2 ml (corresponding to 4×10^6 cells). A total of sixty mice were implanted. B. Test Results
1 h post administration of the last dose, the mice were weighed. The right-upper arm of the mice was cut after sterilization, and the tumor section was removed. The quotient of noumenal tumor (%) and inhibition (%) were calculated.

[3] = test system: leukocyte infiltrate in air pouch; experiment: Thioglycollate-induced air pouch inflammation in mice; format: in vivo, mouse; conditions: dose 25 mg/kg subq.
Description: Test method: Subcutaneous air pouches were formed on the backs of mice by injecting 5 mL of sterile air below the skin of a shaved area between the scapulae of an anaesthetized mouse. After 2 days post-injection the pouch was reinflated by the injection of 2.5 mL of air. Inflammation was induced on day 6 by injecting directly into the pouch 1.0 mL of 56 mg/mL thioglycollate or 1.0 mL of saline as a control. Approximately 17-20 h after thioglycollate injection, the animals were killed, and the cellular contents of the pouch retrieved by the injection of 2.5 mL of PBS/5% FCS. The sulfated octyl hexaoside 25 was tested for its ability to inhibit the inflammatory reaction by being injected subq. in a separate site immediately following administration of the thioglycollate. Prednisolone was used as a control anti-inflammatory drug, and was injected subq. at 25 mg/kg. The total cellular contents of each pouch were determined using a Coulter Counter and different leukocyte subpopulations were assessed by immunofluorescent flow cytometry.

[4] = IP 10 mg/kg, relative to control
[5] = IP 10 mg/kg×10 d (dose of 17 not given)

SMILES | 3H-TdR incorporation ([1]; IP 1 mg/kg, control 3394) | enhancement rate (%) ([1]; IP 1 mg/kg, control = 100) | 3H-TdR incorporation ([1]; IP 10 mg/kg, control 3045) | enhancement rate (%) [1, 4] | inhibition (%) [2, 5] | quotient of noumenal tumor (%) [2, 5] | inhibition (%) ([2]; cyclophosphamide IP 70 mg/kg) | quotient of noumenal tumor (%) ([2]; cyclophosphamide IP 70 mg/kg) | weight ([2]; mouse weight 1 h after last dose, cyclophosphamide IP 70 mg/kg) | leukocyte infiltrate in air pouch in comparison to the control [3]
CCCCCCCCOC1OC(COC2OC(CO)C(O)C(O)C2O)C(O)C(OC2OC(CO)C(O)C(OC3OC(COC4OC(CO)C(O)C(O)C4O)[C@@H](O)C(OC4OC(CO)C(O)C(O)C4O)C3O)C2O)C1O (stereo partly shown) [18′] | 5547 | 163% | 6082 | 200% | 58.43% | 1.54 ± 0.56 % | – | – | – | –
OCC1OC(OCC2OC(O)C(O)C(OC3OC(CO)C(O)C(OC4OC(COC5OC(CO)C(O)C(O)C5O)[C@@H](O)C(OC5OC(CO)C(O)C(O)C5O)C4O)C3O)C2O)C(O)C(O)C1O (stereo partly shown) [compound 18] | 5497 | 162% | 6084 | 200% | 29.41% | 2.63 ± 0.90% | – | – | – | –
COC1OC(CO)[C@@H](O)C(O[C@H]2OC(CO[C@@H]3OC(CO)[C@@H](O)C(O)C3O)[C@@H](O)C(O[C@@H]3OC(CO)[C@@H](O)C(O[C@H]4OC(CO[C@@H]5OC(CO)[C@@H](O)C(O)C5O)[C@@H](O)C(O[C@@H]5OC(CO)[C@@H](O)C(O)C5O)C4O)C3O)C2O)C1O (stereo partly shown) [compound 24] | 5546 | 163% | 5087 | 167% | 41.21% | 2.54 ± 1.89% | – | – | – | –
O=P1(N(CCCl)CCCl)NCCCO1 (stereo not shown) [cyclophosphamide, Cyclophosphamide, reference compound] | – | – | – | – | – | – | 43.89% | 1.86 ± 0.73 % | 28.00 ± 1.78 g | –
C[C@]12C=CC(=O)C=C1CC[C@@H]1[C@@H]2[C@@H](O)C[C@@]2(C)[C@H]1CC[C@]2(O)C(=O)CO [prednisolone, Prednisolone] | – | – | – | – | – | – | – | – | – | 56±14%
